# Legend:
# [1] = molecular target: T1, recombinant human cIAP2-BIR3 protein (Homo sapiens, UniProt Q13489); experiment: Recombinant human c-IAP2-BIR3 biochemical assay (HTRF, peptide displacement); details: 3.7 nM cIAP2-BIR3, 3.7 nM AbuRPF-K(5-Fam)-NH2 peptide, read-out: Protein binding IC50 (nM) c-IAP2
# T1 construct: recombinant human cIAP2-BIR3 protein; purchased Reaction biology APT-11-372
# Summary of the method: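 HTRF peptide-displacement readout (ex337, em520/490 ratio) after sequential 1 h room-temperature steps: compound with 3.7 nM protein, then 3.7 nM 5-Fam-labelled AbuRPF peptide, then Tb-cryptate anti-6His antibody. Buffer pH 7.5 HEPES with NaCl, Tween-20, DTT; 10-point 4-fold dilutions from 10 uM; four-parameter logistic IC50.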
# [2] = molecular target: T2, recombinant human XIAP-BIR3 protein (Homo sapiens, UniProt P98170); experiment: Recombinant human XIAP-BIR3 biochemical assay (HTRF, peptide displacement); details: 3.7 nM XIAP-BIR3, 7.6 nM AbuRPF-K(5-Fam)-NH2 peptide, read-out: Protein binding IC50 (nM) XIAP
# T2 construct: recombinant human XIAP-BIR3 protein; purchased Reaction biology APT-11-374
# Summary of the method: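 HTRF peptide displacement with 7.6 nM 5-Fam-labelled AbuRPF peptide, anti-6His Tb donor and 3.7 nM recombinant XIAP-BIR3. Protein and compound (10-point, 4-fold from 10 µM) were preincubated 1 h RT in HEPES pH 7.5 buffer before each addition, each 1 h. IC50 by four-parameter fit of the 520/490 nm ratio.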
# [3] = molecular target: T3, recombinant human cIAP1-BIR3 protein (Homo sapiens, UniProt Q13490); experiment: Recombinant human c-IAP1-BIR3 biochemical assay (HTRF, peptide displacement); details: 1.2 nM cIAP1-BIR3, 3 nM AbuRPF-K(5-Fam)-NH2 peptide, read-out: Protein binding IC50 (nM) c-IAP1
# T3 construct: recombinant human cIAP1-BIR3 protein; purchased Reaction biology APT-11-370
# Summary of the method: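 HTRF peptide displacement: after 1 h compound pre-incubation (max 10 uM, 4-fold dilutions, 10 points) with 1.2 nM protein in HEPES pH 7.5 buffer, 3 nM 5-Fam-labelled AbuRPF-K peptide and Tb-anti-6His were each added for 1 h at room temperature. Inhibition taken from 520/490 nm ratio, fitted four-parameter logistic for IC50.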
# T1 sequence (Q13489 238-349 limits assumed): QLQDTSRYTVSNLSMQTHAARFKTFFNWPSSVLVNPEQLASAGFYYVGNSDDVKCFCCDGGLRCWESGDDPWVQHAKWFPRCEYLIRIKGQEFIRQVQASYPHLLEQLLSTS
# T2 sequence (P98170 241-356 limits assumed): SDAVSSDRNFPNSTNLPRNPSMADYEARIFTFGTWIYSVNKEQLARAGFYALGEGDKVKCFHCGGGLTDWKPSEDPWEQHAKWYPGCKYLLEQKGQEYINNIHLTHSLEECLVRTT
# T3 sequence (Q13490 253-363 limits assumed): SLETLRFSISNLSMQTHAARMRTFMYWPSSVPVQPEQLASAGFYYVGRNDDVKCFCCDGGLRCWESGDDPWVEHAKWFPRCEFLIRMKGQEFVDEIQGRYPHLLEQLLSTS
Structure (SMILES),IC50 [1],IC50 [2],IC50 [3]
C[C@@H]1CN(CC(=O)N2c3cc(Cc4ccc(F)cc4)c(NC4CC4)nc3OC[C@@H]2C)[C@@H](CN2[C@H](C)COC[C@H]2C)CN1 [Compound 110],0.75 nM,11.9 nM,0.36 nM
"CCNc1nc2c(cc1Cc1ccc(F)cc1)N(C(=O)CN1C[C@@H](C)NC[C@@H]1CN1[C@H](C)COC[C@H]1C)[C@@H](C)CO2 [Compound 111, 2-((2R,5R)-2-(((3R,5R)-3,5-dimethylmorpholino)methyl)-5-methylpiperazin-1-yl)-1-((S)-6-(ethylamino)-7-(4-fluorobenzyl)-2-methyl-2,3-dihydro-1H-pyrido[2,3-b][1,4]oxazin-1-yl)ethan-1-one]",0.7 nM,13.9 nM,0.25 nM
"C[C@@H]1CN(CC(=O)N2c3cc(Cc4ccc(F)cc4)c(NCC(F)(F)F)nc3OC[C@@H]2C)[C@@H](CN2[C@H](C)COC[C@H]2C)CN1 [Compound 112, 2-((2R,5R)-2-(((3R,5R)-3,5-dimethylmorpholino)methyl)-5-methylpiperazin-1-yl)-1-((S)-7-(4-fluorobenzyl)-2-methyl-6-((2,2,2-trifluoroethyl)amino)-2,3-dihydro-1H-pyrido[2,3-b][1,4]oxazin-1-yl)ethan-1-one]",0.63 nM,4.6 nM,0.34 nM
C[C@@H]1CN(CC(=O)N2c3cc(Cc4ccc(F)cc4)c(-c4ccc(F)cc4)nc3OC[C@@H]2C)[C@@H](CN2[C@H](C)COC[C@H]2C)CN1 [Compound 113],0.36 nM,5.4 nM,0.25 nM
C[C@@H]1CN(CC(=O)N2c3cc(Cc4ccc(F)cc4)c(CN4CC(O)C4)nc3OC[C@@H]2C)[C@@H](CN2[C@H](C)COC[C@H]2C)CN1 [Compound 114],0.36 nM,7.7 nM,0.19 nM
"C[C@@H]1CN(CC(=O)N2c3cc(Cc4ccc(F)cc4)c(N)nc3OC[C@@H]2C)[C@@H](CN2[C@H](C)COC[C@H]2C)CN1 [Compound 115, 1-((S)-6-amino-7-(4-fluorobenzyl)-2-methyl-2,3-dihydro-1H-pyrido[2,3-b][1,4]oxazin-1-yl)-2-((2R,5R)-2-(((3R,5R)-3,5-dimethylmorpholino)methyl)-5-methylpiperazin-1-yl)ethan-1-one]",0.28 nM,6.9 nM,0.17 nM
CC(=O)Nc1nc2c(cc1Cc1ccc(F)cc1)N(C(=O)CN1C[C@@H](C)NC[C@@H]1CN1[C@H](C)COC[C@H]1C)[C@@H](C)CO2 [Compound 116],0.24 nM,4.3 nM,0.16 nM
CCC(=O)Nc1nc2c(cc1Cc1ccc(F)cc1)N(C(=O)CN1C[C@@H](C)NC[C@@H]1CN1[C@H](C)COC[C@H]1C)[C@@H](C)CO2 [Compound 117],0.23 nM,6.5 nM,0.15 nM
"CC(C)C(=O)Nc1nc2c(cc1Cc1ccc(F)cc1)N(C(=O)CN1C[C@@H](C)NC[C@@H]1CN1[C@H](C)COC[C@H]1C)[C@@H](C)CO2 [Compound 118, N—((S)-1-(2-((2R,5R)-2-(((3R,5R)-3,5-dimethylmorpholino)methyl)-5-methylpiperazin-1-yl)acetyl)-7-(4-fluorobenzyl)-2-methyl-2,3-dihydro-1H-pyrido[2,3-b][1,4]oxazin-6-yl)isobutyramide]",0.19 nM,4.8 nM,0.16 nM
"C[C@@H]1CN(CC(=O)N2c3cc(Cc4ccc(F)cc4)c(NC(=O)C4CC4)nc3OC[C@@H]2C)[C@@H](CN2[C@H](C)COC[C@H]2C)CN1 [Compound 119, N—((S)-1-(2-((2R,5R)-2-(((3R,5R)-3,5-dimethylmorpholino)methyl)-5-methylpiperazin-1-yl)acetyl)-7-(4-fluorobenzyl)-2-methyl-2,3-dihydro-1H-pyrido[2,3-b][1,4]oxazin-6-yl)cyclopropanecarboxamide]",0.35 nM,4.4 nM,0.2 nM
C[C@@H]1CN(CC(=O)N2c3cc(Cc4ccc(F)cc4)c(C(=O)NC(C)(C)C)nc3OC[C@@H]2C)[C@@H](CN2[C@H](C)COC[C@H]2C)CN1 [Compound 120],0.39 nM,6.8 nM,0.24 nM
COCCC(=O)Nc1nc2c(cc1Cc1ccc(F)cc1)N(C(=O)CN1C[C@@H](C)NC[C@@H]1CN1[C@H](C)COC[C@H]1C)[C@@H](C)CO2 [Compound 121],0.27 nM,4.2 nM,0.2 nM
CCS(=O)(=O)Nc1nc2c(cc1Cc1ccc(F)cc1)N(C(=O)CN1C[C@@H](C)NC[C@@H]1CN1[C@H](C)COC[C@H]1C)[C@@H](C)CO2 [Compound 122],0.29 nM,2.9 nM,0.19 nM
"C[C@@H]1CN(CC(=O)N2c3cc(Cc4ccc(F)cc4)c(NS(=O)(=O)C4CC4)nc3OC[C@@H]2C)[C@@H](CN2[C@H](C)COC[C@H]2C)CN1 [Compound 123, N—((S)-1-(2-((2R,5R)-2-(((3R,5R)-3,5-dimethylmorpholino)methyl)-5-methylpiperazin-1-yl)acetyl)-7-(4-fluorobenzyl)-2-methyl-2,3-dihydro-1H-pyrido[2,3-b][1,4]oxazin-6-yl)cyclopropanesulfonamide]",0.35 nM,4.4 nM,0.2 nM
"C[C@@H]1CN(CC(=O)N2c3cc(Cc4ccc(F)cc4F)c(CO)nc3OC[C@@H]2C)[C@@H](CN2[C@H](C)COC[C@H]2C)CN1 [Example 60, 1-((S)-7-(2,4-difluorobenzyl)-6-(hydroxymethyl)-2-methyl-2,3-dihydro-1H-pyrido[2,3-b][1,4]oxazin-1-yl)-2-((2R,5R)-2-(((3R,5R)-3,5-dimethylmorpholino)methyl)-5-methylpiperazin-1-yl)ethan-1-one]",0.34 nM,7.5 nM,0.13 nM
"C[C@@H]1CN(CC(=O)N2c3cc(Cc4ccc(F)cc4)c(C(N)=O)nc3OC[C@@H]2C)[C@@H](CN2CCOCC2(C)C)CN1 [Example 61, (S)-1-(2-((2R,5R)-2-((3,3-dimethylmorpholino)methyl)-5-methylpiperazin-1-yl)acetyl)-7-(4-fluorobenzyl)-2-methyl-2,3-dihydro-1H-pyrido[2,3-b][1,4]oxazine-6-carboxamide]",1.08 nM,14 nM,0.43 nM
"CC(C)OC[C@@H]1COCCN1C[C@H]1CN[C@H](C)CN1CC(=O)N1c2cc(Cc3ccc(F)cc3)c(C(N)=O)nc2OC[C@@H]1C [Example 62, (S)-7-(4-fluorobenzyl)-1-(2-((2R,5R)-2-(((S)-3-(isopropoxymethyl)morpholino)methyl)-5-methylpiperazin-1-yl)acetyl)-2-methyl-2,3-dihydro-1H-pyrido[2,3-b][1,4]oxazine-6-carboxamide]",0.73 nM,8.1 nM,0.33 nM
C[C@@H]1CN(CC(=O)N2c3cc(Cc4ccc(F)cc4)c(C(=O)NC4CC4)nc3OC[C@@H]2C)[C@@H](CN2[C@H](C)COC[C@H]2C)CN1 [Example 63],0.23 nM,3.2 nM,0.17 nM
C[C@@H]1CN(CC(=O)N2c3cc(Cc4ccc(F)cc4)c(C(=O)NCC(F)(F)F)nc3OC[C@@H]2C)[C@@H](CN2[C@H](C)COC[C@H]2C)CN1 [Example 64],0.29 nM,2.3 nM,0.25 nM
"CCNC(=O)c1nc2c(cc1Cc1ccc(F)cc1)N(C(=O)CN1C[C@@H](C)NC[C@@H]1CN1[C@H](C)COC[C@H]1C)[C@@H](C)CO2 [Example 65, (S)-1-(2-((2R,5R)-2-(((3R,5R)-3,5-dimethylmorpholino)methyl)-5-methylpiperazin-1-yl)acetyl)-N-ethyl-7-(4-fluorobenzyl)-2-methyl-2,3-dihydro-1H-pyrido[2,3-b][1,4]oxazine-6-carboxamide]",0.44 nM,4.4 nM,0.22 nM
"COCCNC(=O)c1nc2c(cc1Cc1ccc(F)cc1)N(C(=O)CN1C[C@@H](C)NC[C@@H]1CN1[C@H](C)COC[C@H]1C)[C@@H](C)CO2 [Example 66, (S)-1-(2-((2R,5R)-2-(((3R,5R)-3,5-dimethylmorpholino)methyl)-5-methylpiperazin-1-yl)acetyl)-7-(4-fluorobenzyl)-N-(2-methoxyethyl)-2-methyl-2,3-dihydro-1H-pyrido[2,3-b][1,4]oxazine-6-carboxamide]",0.52 nM,5.9 nM,0.25 nM
"COCCOCCNC(=O)c1nc2c(cc1Cc1ccc(F)cc1)N(C(=O)CN1C[C@@H](C)NC[C@@H]1CN1[C@H](C)COC[C@H]1C)[C@@H](C)CO2 [Example 67, (S)-1-(2-((2R,5R)-2-(((3R,5R)-3,5-dimethylmorpholino)methyl)-5-methylpiperazin-1-yl)acetyl)-7-(4-fluorobenzyl)-N-(2-(2-methoxyethoxy)ethyl)-2-methyl-2,3-dihydro-1H-pyrido[2,3-b][1,4]oxazine-6-carboxamide]",0.56 nM,8.2 nM,0.29 nM

# Source: US12583866B2, “Pyrido[2,3-b][1,4]oxazines or tetrahydropyrido[2,3-b][1,4]oxazepines as IAP antagonists” (BEIGENE, LTD., priority 2020, dated 2026)
